From US5847125A, “Amino acid derivatives with anticholecystokinin activity” (James Black Foundation Limited, priority 1992, dated 1998)

Assays:
[1] = target: T1, CCKB receptor (Mus musculus, UniProt P56481); assay: CCKB radioligand binding assay in mouse cortical membranes, [125I] CCK-8S (selectivity testing); set-up: species or system male mice; conditions: [125I] CCK-8S 200 pM, 150 min at 21°, pH 7.2, non-specific binding L-365,260, read-out: pKi CCKB (converted)
T1 construct: CCKB receptor in mouse cortical membranes; from tissue; host or cells: mouse cerebral cortex membranes (male mice, Charles River)
T1 sequence (P56481 1-453): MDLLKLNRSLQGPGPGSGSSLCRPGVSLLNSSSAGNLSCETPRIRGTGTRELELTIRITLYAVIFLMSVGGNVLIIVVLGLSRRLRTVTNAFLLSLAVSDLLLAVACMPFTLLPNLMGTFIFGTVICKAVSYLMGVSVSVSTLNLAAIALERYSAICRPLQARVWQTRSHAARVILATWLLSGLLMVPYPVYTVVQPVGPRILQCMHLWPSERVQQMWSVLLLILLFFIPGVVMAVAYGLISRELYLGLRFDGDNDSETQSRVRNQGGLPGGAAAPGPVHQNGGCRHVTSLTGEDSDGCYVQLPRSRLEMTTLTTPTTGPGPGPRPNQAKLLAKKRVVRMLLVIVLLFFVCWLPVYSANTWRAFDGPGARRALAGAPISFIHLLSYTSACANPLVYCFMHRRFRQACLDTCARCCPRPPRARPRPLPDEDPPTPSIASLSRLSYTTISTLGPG
Method: The compounds were assayed for selectivity with respect to the CCKB receptor in mouse cortical membranes by means of a radioligand binding assay. The procedure was as follows:
The whole brains from male mice (CDI 22-25 g; Charles River) were removed and placed in ice-cold buffer (pH 7.2 at 21°±3° C.) of the following composition (mM); 10 HEPES, 130 NaCl, 4.7 KCl, 5 MgCl2, 1 EDTA and containing 0.25 g. 1^-1 bacitracin.
The cortex was dissected, weighed and homogenised in 40 ml ice-cold buffer using a Teflon-in-glass homogeniser. The homogenate was centrifuged at 39,800 g for 20 min at 4° C., the supernatant discarded and the pellet resuspended by homogenisation in fresh buffer. The homogenate was recentrifuged (39,800 g; 20 min at 4° C.) and the final pellet was resuspended in HEPES buffer to give a tissue concentration of 2 mg ml^-1 (original wet weight).
The membranes (400 μl) were incubated for 150 min at 21°±3° C. in a final volume of 0.5 ml with HEPES buffer containing [^125 I] CCK-8S (0.05 ml; 200 pM NEN 2200Ci.mmol^-1) and competing compound. Total and non-specific binding of [^125 I] CCK-8S were defined using 0.05 ml of buffer and 0.05 ml of 10 mM L-365,260, respectively. The assay was terminated by rapid filtration through pre-soaked Whatman GF/B filters using a Brandell Cell harvester. The filters were washed (3×3 ml) with ice-cold 50 mM Tris-HCl (pH 7.4 at 4° C.) and bound radioactivity determined by counting (1 min.) in a gamma counter.

[2] = target: T2, CCK (gallbladder) receptor (Cavia porcellus, UniProt Q63931); assay: CCK-receptor bioassay, isolated guinea-pig gall-bladder strip preparations, CCK-8 as agonist; format: cell-based, male Dunkin-Hartley guinea-pigs; conditions: negative log10 of equilibrium dissociation constant; guinea-pig gall-bladder strips; CCK-8 agonist; test compound incubated for 60 minutes; 37° C; read-out: pKB versus CCK (gallbladder) (converted)
T2 construct: Isolated, strip preparations were prepared from gall-bladders removed from male Dunkin-Hartley guinea-pigs; from tissue; host or cells: guinea-pig gall-bladder strips
T2 sequence (Q63931 1-430): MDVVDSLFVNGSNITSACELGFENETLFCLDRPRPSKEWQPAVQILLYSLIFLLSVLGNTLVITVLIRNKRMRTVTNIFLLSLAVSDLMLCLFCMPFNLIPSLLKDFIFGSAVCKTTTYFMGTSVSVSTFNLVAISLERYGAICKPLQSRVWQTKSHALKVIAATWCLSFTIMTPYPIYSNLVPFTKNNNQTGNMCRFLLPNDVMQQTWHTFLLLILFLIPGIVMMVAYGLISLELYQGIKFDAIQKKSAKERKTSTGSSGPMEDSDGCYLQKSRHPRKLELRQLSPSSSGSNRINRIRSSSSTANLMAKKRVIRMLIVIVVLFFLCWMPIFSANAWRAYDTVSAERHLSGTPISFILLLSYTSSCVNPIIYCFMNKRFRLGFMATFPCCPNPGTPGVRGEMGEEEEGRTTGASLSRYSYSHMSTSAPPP
Method: The compounds of the examples were assayed using a CCK-receptor bioassay as follows:
Isolated, strip preparations were prepared from gall-bladders removed from male Dunkin-Hartley guinea-pigs (250-500 g body weight) according to the method of La Morte, W. W., et al., J.P.E.T., 217, (3), 638-644 (1981).
The complete gall-bladder is removed and opened along the longitudinal axis. Strips measuring 3 mm in the longitudinal axis and 1 mm in the transverse axis are cut and then tied with cotton to stainless steel wires. The preparation is connected to a GRASS FTO3 isometric transducer under an initial loading tension of 1 g and is immersed in 20 mls of Krebs solution maintained at 37° C. and gassed with 95% O2 /5% CO2. The Krebs solution is as detailed above in connection with the fundus assay, except that the Ca^2+ concentration is decreased to 0.5 mM. After 30 mins the preparation is washed. Drug addition begins after an initial 90 min stabilisation period. Responses are measured as changes in tension from that immediately prior to any drug addition. Single cumulative agonist concentration-effect curves, using CCK-8 as agonist, are obtained on each preparation in the absence and presence of test compound which has been incubated for 60 minutes. The antagonist activity of the test compound is estimated and expressed as the negative logarithm (base 10) of the equilibrium dissociation constants (pKB) using the modifications of standard competitive analysis described by Black et al., Br. J. Pharmacol.,86,571-579, (1985) and Shankley et al., Br. J. Pharmacol.,94,264-274 (1988).

[3] = target: T3, CCKA (Cavia porcellus, UniProt Q63931); assay: CCKA binding assay, pancreas membranes, [125I]-CCK8(S); set-up: species or system male guinea-pigs (Dunkin Hartley); conditions: guinea-pig pancreas membranes; [125I]-CCK8(S) 200 pM; 0.375 μM PD134,308; 150 minutes at 21°; non-specific binding 100 nM L-364,718; read-out: pKi CCKλ (converted)
T3 construct: The pancreatata were removed from male guinea-pigs (200-300 g; Dunkin Hartley); from tissue; host or cells: guinea-pig pancreas membranes
T3 sequence (Q63931 1-430): T2 sequence (Q63931 1-430)
Method: The compounds of the examples were also tested in a CCKA binding assay as follows:
The pancreatata were removed from male guinea-pigs (200-300 g; Dunkin Hartley) and placed in ice-cold HEPES buffer (pH 7.2@21°±3°). The pancreatata were homogenised in 40 ml ice-cold HEPES buffer using a polytron (Brinkmann, PT10, setting 10) 4×1 second. The homogenate was centrifuged at 39,800 g for 15 min at 4°. The supernatant was discarded and the pellet re-suspended using a Teflon-in-glass homogeniser in 20 volumes of fresh buffer and re-centrifuged as above. The final pellet was re-suspended using a Teflon-in-glass homogeniser to a tissue concentration of 1 mg ml^31 1 (original wet weight), and filtered through 500 μm pore-size Nytex mesh.
The membranes (400 μl; containing 0.375 μM PD134,308) are incubated for 150 minutes at 21°±3° in a final volume of 0.5 ml with HEPES buffer containing [^125 I]--CCK8 (S) (50 μl; 200 pM) and competing compound. Total and non-specific binding of [^125 I]--CCK8 (S) are defined using 50 μl of buffer and 50 μl of 100 nM L-364,718 respectively. The assay is terminated by rapid filtration through pre-soaked Whatman GF/B filters using a Brandell Cell Harvester. The filters were washed (3×3 ml) with ice-cold 50 mM Tris HCl (pH 7.4 at 4°) and bound radioactivity is determined by counting (1 min) in a gamma counter.

| Ki [1] [µM] | Kb [2] [nM] | Ki [3] [nM] | SMILES |
| --- | --- | --- | --- |
| 3.16 | 158 | 631 | CCCCCN(CCCCC)C(=O)[C@@H](CC(=O)O)NS(=O)(=O)c1ccc2ccccc2c1 [Example 18, 2-Naphthalenesulphonyl-D-aspartyl dipentylamide] |
| 3.16 | 631 | 1580 | CCCCCN(CCCCC)C(=O)[C@H](CCC(=O)O)NS(=O)(=O)c1ccc2ccccc2c1 [Example 19, 2-Naphthalenesulphonyl-L-glutamyl dipentylamide] |
| 10 | 79.4 | 39.8 | O=C(O)C[C@H](NS(=O)(=O)c1ccc2ccccc2c1)C(=O)NC1CCCCCCCCCCC1 [Example 16, 2-Naphthalenesulphonyl-L-aspartyl cyclododecylamide] |
